Measurements published in patent US20190359941A1, “SUBSTITUTED AZOLE DERIVATIVES FOR GENERATION, PROLIFERATION AND DIFFERENTIATION OF HEMATOPOIETIC STEM AND PROGENITOR CELLS” (NATIONAL UNIVERSITY OF SINGAPORE, priority 2016, published 2019).
“Also recorded” adds a separate entry of the source. Where two headings read alike, the source gives them in different places.

What was measured:
[1] = test system: hematopoietic progenitor cells (HPC: CD45+CD34+CD38−CD45RA−); experiment: Ex vivo expansion of hematopoietic progenitor cells from non-enriched UCB mononuclear cells; details: for relative effectiveness in inducing ex vivo expansion of HPC/HSPC (in words): among all the compounds screened; for enhancement of HPC expansion compared to cytokine control: 11 days (FIG. 9A)
[2] = test system: CD34 cells; details: cited from earlier work
[3] = test system: colony forming unit (CFU) - granulocyte, macrophage (GM); details: 5.0 μM; SFEM; 10 days (FIG. 9B)
Description: Colony-forming units (CFU) of granulocyte-monocyte (GM) from freshly thawed UCB-MNC or 11 days expanded cells of the mentioned cell cultures were evaluated. Duplicates of freshly thawed UCB-MNC (5,000 and 10,000 cells) and expanded cells (1,000 and 5,000 cells) were cultured in 35 mm petri dishes (BD Falcon, USA) in 1.1 mL of hematopoietic stem cell (HSC)-CFU complete media with erythropoietin (EPO) (Miltenyi Biotec, Germany) without any further media manipulation. After 14-16 days in culture in a humidified environment at 37° C. and 5% CO2, colonies were scored and pictured using a SZ61 Olympus microscope equipped with charge-coupled device (CCD) camera (Olympus Europa GmbH, Germany).

[4] = test system: total nucleated cells (TNC); details: for expansion of TNC reduced, compared to 5.0 μM: 11 days (FIG. 9A)
Description: UCB was obtained through Singapore Cord Blood Bank (SCBB), from donated units failing to meet the criteria for clinical banking. Prior consent was obtained from the donating mothers and the Research Advisory Ethics Committee of the SCBB, along with the Institutional Review Boards of National University of Singapore (NUS), and Singapore General Hospital (SGH) approved the usage of the samples. Mononuclear cells (MNC) were isolated from the fresh UCB by density gradient centrifugation using Ficoll-Histopaque™ Premium (GE Healthcare, UK). Counted UCB-MNC was cryopreserved in 90% v/v autologous plasma with 10% v/v dimethyl-sulfoxide (DMSO) (Sigma Aldrich, USA) for subsequent usage. UCB-MNC was thawed using human serum albumin (25% v/v) (Health Sciences Authority, Singapore) and Dextran 40 (75% v/v) (Hospira, USA). […] For certain experiments, cell cultures were initiated with purified populations such as early (CD45+CD34+CD38−) or late (CD45+CD34+CD38+) progenitor cells at optimal plating concentration of 5.0×10^4 cells/ml or 2.0×10^6 cells/ml, respectively. Such pure populations were obtained by labeling the frozen-thawed, non-enriched UCB-MNC using fluorescence conjugated antibodies followed by fluorescence activated cell sorting (FACS). The substituted azole-based small molecules dissolved in DMSO were added to the cultures at an empirically determined optimal concentration of 5.0 μM. UCB-MNC cultures devoid of small molecules but supplemented with cytokines served as control, while cultures supplemented with cytokines and DMSO served as vehicle control.
Cell cultures for in vitro experiments were done in 6- or 24-well plates (BD Falcon, USA), while culturing for in vivo transplantation studies was carried out in T-175 flasks (Corning, USA). Cell cultures were maintained in a humidified, 5% carbon dioxide incubator at 37° C. for the required duration. For UCB expansion evaluation and animal experimentation, an established 10-11-day expansion protocol was used which included cytokine and small molecule replenishment on day 7. At completion of incubation, cells were aspirated from the culture-ware with subsequent rinsing by Dulbecco's phosphate buffered saline (DPBS) (Hyclone, USA). The extracted cells were counted using an automated differential hematology cell counter (COULTER® AcT™ diff Hematology Analyzer, Beckman Coulter Inc, USA) and re-suspended in DPBS for subsequent in vitro analysis or transplantation in mice.

[5] = test system: CD45+ leukocytes of UCB-MNC; details: 5.0 μM; 72 hours / day 3; frozen-thawed MNC (FIG. 7)
Description: SB203580, DMSO and cytokines alone in serum-free expansion media (SFEM) served as the reference compound, vehicle and blank control, respectively. Data represents mean±SEM for n=3.
Annexin-V-FITC (Beckman Coulter, Inc., USA), 7-AAD (Beckman Coulter, Inc., USA) and CD45-PE-Cy7 were used for CD45+ cell viability analysis.
All compounds were assessed for their ability to maintain the viability of CD45+ leukocytes using Annexin V and 7-AAD. Induction of apoptosis in the CD45+ cells during ex vivo cultures limits expansion of HSPC.

[6] = test system: CD34+ cells; details: 5.0 μM; 11 days (FIG. 17H)
[7] = test system: UCB-MNC expanded cells; details: 5.0 μM; ACF; 11 days (FIG. 13E)
Description: UCB-MNC samples were fixed with modified Carnoy's fixative (Leica Biosystems, Germany) and placed onto glass microscope slides, and then dehydrated through an ethanol (Sigma-Aldrich, USA) series (70%, 85% and 100%) for 2 minutes followed by air-drying.
FISH assays were carried out using a panel of probes (Abbott Molecular, USA) comprising LSI D7S486 SpectrumOrange™/CEP 7 SpectrumGreen™, CEP 8 SpectrumAqua™/LSI MYC SpectrumOrange™, LSI CDKN2A SpectrumOrange™/CEP 9 SpectrumGreen™, LSI ABL1 SpectrumOrange™/BCR SpectrumGreen™ dual fusion translocation probe, LSI MLL dual color break-apart probe, LSI ETV6 SpectrumGreen™/RUNX1 SpectrumOrange™ extra signal dual color translocation probe, and LSI TP53 SpectrumOrange™/CEP 17 SpectrumGreen™ probe set. The FISH probes were applied to the fixed cells and co-denatured at 75° C., followed by an overnight hybridization at 37° C. Washes were performed and the slide was counterstained with DAPI anti-fade solution (Vectashield, Vector Laboratories, USA) and analyzed using an epi-fluorescence microscope (Leica, Germany).
Signals from 100 non-overlapping nuclei were enumerated for loss of LSI D7S486, trisomy 8, loss of CDKN2A, translocation involving ABL1 and BCR, MLL break-apart, translocation involving ETV6 and RUNX1, and loss of TP53. […]

[8] = test system: HSC2 (CD45+CD34+CD38−CD45RA−CD90+CD49f+); experiment: Ex vivo expansion of HSC2 from UCB-MNC; details: 5.0 μM; SFEM; over 10 days (FIG. 13C)
Description: Mononuclear cells (MNC) were isolated from the fresh UCB by density gradient centrifugation using Ficoll-Histopaque™ Premium (GE Healthcare, UK). Counted UCB-MNC was cryopreserved in 90% v/v autologous plasma with 10% v/v dimethyl-sulfoxide (DMSO) (Sigma Aldrich, USA) for subsequent usage. UCB-MNC was thawed using human serum albumin (25% v/v) (Health Sciences Authority, Singapore) and Dextran 40 (75% v/v) (Hospira, USA). […] For certain experiments, cell cultures were initiated with purified populations such as early (CD45+CD34+CD38−) or late (CD45+CD34+CD38+) progenitor cells at optimal plating concentration of 5.0×10^4 cells/ml or 2.0×10^6 cells/ml, respectively. Such pure populations were obtained by labeling the frozen-thawed, non-enriched UCB-MNC using fluorescence conjugated antibodies followed by fluorescence activated cell sorting (FACS). The substituted azole-based small molecules dissolved in DMSO were added to the cultures at an empirically determined optimal concentration of 5.0 μM. […]
Cell cultures were maintained in a humidified, 5% carbon dioxide incubator at 37° C. for the required duration. […] The extracted cells were counted using an automated differential hematology cell counter (COULTER® AcT™ diff Hematology Analyzer, Beckman Coulter Inc, USA) and re-suspended in DPBS for subsequent in vitro analysis or transplantation in mice. […]

[9] = 5.0 μM, SFEM, 10 days (FIG. 8C)
[10] = IM-29 mediated expansion of UCB

SMILES: Fc1ccc(-c2nc(-c3ccc4ccccc4c3)[nH]c2-c2ccncc2)cc1 [ZQX-33, 4-[2-(naphthalen-2-yl)-4(5)-(4-fluorophenyl)-1H-imidazol-5(4)-yl]pyridine]
- HPC expansion capacity reduced relative to IM-29 ([1]; naphthalen-2-yl instead of 1-fluoronaphthalen-2-yl at C2, P<0.001): at least 2 fold

SMILES: CC(C)n1cnc2c(NCCc3ccc(O)cc3)nc(-c3csc4ccccc34)nc21 [SR-1, stemregenin-1]
- median CD34 expansion ([2]; cultures lasting up to 15 days, Wagner et al. 2016): 330 fold

SMILES: Cc1cccc(-c2oc(-c3ccc4ccccc4c3F)nc2-c2ccncc2)c1 [OZ-07, 2-(1-fluoronaphthalen-2-yl)-4-(pyridin-4-yl)-5-(m-tolyl)oxazole]
- relative effectiveness in inducing ex vivo expansion of HPC/HSPC (in words) ([1]; 5.0 μM): not optimally active

SMILES: NC(=O)c1cccnc1 [NAM, nicotinamide]
- increase of CD34 cells ([2]; over 21 days, Horwitz et al. 2014): 72 fold

SMILES: Cc1cccc(-c2nc(-c3ccc4ccccc4c3F)[nH]c2-c2ccncc2)c1 [IM-04, 4-[2-(1-fluoronaphthalen-2-yl)-4-(m-tolyl)-1H-imidazol-5-yl]pyridine]
- relative effectiveness in inducing ex vivo expansion of HPC/HSPC (in words) ([1]; 5.0 μM): second most effective compound

SMILES: Fc1ccc(-c2nc(-c3ccc4ccccc4c3F)[nH]c2-c2ccncc2)cc1 [IM-29, 4-[2-(1-fluoronaphthalen-2-yl)-4(5)-(4-fluorophenyl)-1H-imidazol-5(4)-yl]pyridine]
- enhancement of HPC expansion compared to cytokine control ([1]; 1.0 μM, ACF): 2.7 fold
- enhancement effect for HPC expansion compared to cytokine control ([1]; 5.0 μM, 10 days (FIG. 8A)): 8 fold
- boost of HPC expansion on increasing culturing period from 7 days to 9 days ([1]; 5.0 μM, ACF (FIG. 11)): at least 5 fold
- expansion of HPC, IM-29 added at both day 0 and day 7 (Group 1) ([1]; 5.0 μM, ACF, 10 days (FIG. 12)): ≥ 450 fold
- enhancement of HPC expansion compared to cytokine control ([1]; 5.0 μM, ACF): 3.6 fold
- HPC-associated expression of CD45+CD34+CD38−CD45RA− [1, 9]: about 68%
- HPC-associated expression, fold higher than cytokine control [1, 9]: 3 fold
- expansion of HPC, IM-29 added at both day 0 and day 7 (Group 1) ([1]; 5.0 μM, SFEM, 10 days (FIG. 12)): at least 750 fold
- enhancement of HPC expansion compared to cytokine control ([1]; 10.0 μM, ACF): 2.4 fold
- HPC expansion reduced compared to Group 1 when IM-29 not replenished on day 7 (Group 2) ([1]; IM-29 at day 0 only, 10 days (FIG. 12)): at least 0.7 fold
- expansion of HPC (summary) [1, 10]: at least 1,000 fold
- HPC expansion with IM-29 and a single cytokine ([1]; S+IM, T+IM, F+IM or IG+IM (data not shown)): minimal expansion
- HPC expansion, fold higher than the four cytokines culture ([1]; S+T+F+IG+IM-29 vs four cytokines, ACF, 11 days (FIG. 1)): at least 4.7 fold
- HPC expansion ([1]; S+T+F+IM-29 5.0 μM, ACF, 11 days (FIG. 1)): 1265.2±39.1 fold
- HPC expansion enhancement effect vs S+T+F ([1]; S+T+F+IM-29 vs S+T+F, ACF, 11 days (FIG. 1)): 2.6 fold
- HPC expansion ([1]; SCF+TPO+FLT-3L+IGFBP-2+IM-29 5.0 μM, ACF, 11 days (FIG. 1)): 1513.9±6.4 fold
- relative effectiveness in inducing ex vivo expansion of HPC/HSPC (in words) ([1]; 5.0 μM): most effective of those tested; also recorded: most effective compound
- augmentation of HPC expansion when IM-29 is added to basal cocktail ([1]; basal cocktail S+IG+T, ACF, 11 days (FIG. 1)): two-fold
- HPC expansion of Group 1, fold higher than cytokine control Group 3 ([1]; irrespective of basal culture media, 10 days (FIG. 12)): at least 12 fold
- effect on expanding HSPC, IM-29 added only at day 7 (Group 4) ([1]; not added at start of culture, 10 days (FIG. 12)): negligible effect
- HPC expansion with IM-29 alone ([1]; without any cytokines (data not shown)): did not support the expansion of HPC
- expansion of colony forming units (CFU) compared to non-cultured cells [3]: at least 100 fold
- expansion of TNC reduced, compared to 5.0 μM ([4]; 1.0 μM IM-29, ACF): 0.83 fold
- increase of total nucleated cells (TNC) compared to starting cell number ([4]; 5.0 μM, ACF, by day 11 (FIG. 11)): about 6 fold
- expansion of TNC reduced, compared to 5.0 μM ([4]; 10 μM IM-29, ACF): 0.70 fold
- increase of total nucleated cells (summary) [4, 10]: at least 5 fold
- acute toxicity to UCB cells (CD45+ viability) [5]: minimal toxicity
- CD34+ cell expansion, fold higher compared to cytokine control cultures [6]: approximately 1.9 fold
- FISH results with probes relating to hematological malignancies [7]: normal results
- HSC2 expansion enhancement compared to cytokine-only control [8]: at least 7.5 fold
